# Measurements published in patent publication US6818653B1, “6,7-Disubstituted -5,8-quinolinedione derivatives as an antifungal agent” (Il Jin Copper Foil Corp., priority 2002, dated 2004).
# Where two headings read alike, the source gives them in different places.
# What was measured:
# C. albicans = experiment: ED50 in rats infected with C. albicans via tail vein; type: in vivo, rat; conditions: for ED50: Candida albicans, read-out: ED50 ± SD (n = 5)
# Procedure: C. albicans (1×10^7) isolated was inoculated to Sabouraud's agar, suspended in a physiological saline solution, and injected into tail vein of a rat. Strains to kill a rat within 48 hours were selected. C. albicans (2×10^6 which is concentration to kill a rat within 48 hours) suspended in a physiological saline solution was injected and infected into tail veins of 125 rats. Each concentration (10, 2, 0.5, 0.1, 0.025 mg/kg) of the compounds of table 3 was administered to each 10 rats. After infecting with Candida strain, each compound was administered to each 10 rats. Fluconazol as a control drug was also administered with 10, 2, 0.5 and 0.1 mg/kg of concentrations. A physiological saline solution containing 0.2% tween 20 was administered as a control group.
# [1] = test system: Candida glabrata ATCC2001; experiment: MIC by solid medium dilution method; type: cell-based; conditions: Sabouraud's agar, 3 days at 30° C.; for MIC: Nakaseomyces glabratus, ATCC2001, 72 h
# Procedure: (§1) The minimum inhibitory concentration (MIC), which indicates the lowest concentration of the active ingredient in the growth medium, was determined by solid medium dilution method. Pathogens strains used are Candida albicans ATCC10231, Candida glabrata ATCC2001, Candida tropicalis ATCC8775, Candida parasilosis ATCC22019, Cryptococuss neoformans KCTC7223.
# (§2) 4 mg of a test compound was dissolved in 2 ml of dimethylfulfoxide(DMSO) to produce solutions having a concentration of 2 mg/ml for use and serial two-fold dilution was prepared. The test medium was Sabouraud's agar. 50 μl aliquot of serial two-fold dilution was added to 1 ml of agar medium in 10×1.2 cm petri dishes to be 100, 50, 25, 12.5 6.3, 1.6, and 0.8 μg/ml of test compound concentration and the slant was prepared by tilting the petri dishes. The MIC value without containing a test compound was determined in order to test an effect of a solvent to an antifungal activity. Hyphae with a diameter of 2 mm were inoculated with 2×10^5 CFU. After the medium was cultured for 3 days at 30° C., the MIC values were determined. Control drugs were fluconazole and ketoconazole.
# [2] = test system: Candida tropicalis ATCC8775; experiment: MIC by solid medium dilution method; type: cell-based; conditions: Sabouraud's agar, 3 days at 30° C.; for MIC: Candida tropicalis, ATCC8775, 72 h, read-out: MIC C. tropicallis
# Procedure: as §1, §2
# [3] = test system: Cryptococuss neoformans KCTC7223; experiment: MIC by solid medium dilution method; type: cell-based; conditions: Sabouraud's agar, 3 days at 30° C.; for MIC: Cryptococcus neoformans, KCTC7223, 72 h
# Procedure: as §1, §2
# [4] = test system: Candida parasilosis ATCC22019; experiment: MIC by solid medium dilution method; type: cell-based; conditions: Sabouraud's agar, 3 days at 30° C.; for MIC: 72 h, read-out: MIC C. parapsilosis
# Procedure: as §1, §2
# [5] = test system: Candida albicans ATCC10231; experiment: MIC by solid medium dilution method; type: cell-based; conditions: Sabouraud's agar, 3 days at 30° C.; for MIC: Candida albicans, ATCC10231, 72 h
# Procedure: as §1, §2
# [6] = rat infected with C. albicans 2×10^6 via tail vein
Compound,ED50 (C. albicans) [mg/kg],MIC [1] [µg/mL],MIC [2] [µg/mL],MIC [3] [µg/mL],MIC [4] [µg/mL],MIC [5] [µg/mL],MIC C. glabrata [1] [µg/mL],MIC C. tropicallis [2] [µg/mL],MIC C. neoformans [3] [µg/mL],MIC C. parapsilosis [4] [µg/mL],MIC C. albicans [5] [µg/mL],ED50 ± SD (n = 5) (C. albicans; [6]) [mg/kg],ED50 (C. albicans; [6]) [mg/kg]
"O=C1C(Nc2ccc(Cl)cc2)=C(Br)C(=O)c2ncccc21 [Compound No. 1, 6-[(N-4-chlorophenyl)amino]-7-bromo-5,8-quinolindion]",0.06,12.5,12.5,12.5,25,6.3,,,,,,,
"CSC1=C(Nc2ccc(F)c(F)c2F)C(=O)c2cccnc2C1=O [compound 5, 6-[(N-2,3,4-trifulorophenyl)amino]-7-methylmercapto-5,8-quinolindion]",,,,,,,3.2,3.2,6.3,25.0,1.6,,
"6-n-hecxylmercapto-7-chloro-5,8-quinolindion [compound 17]",,,,,,,50,50,12.5,25,25,,
"CSC1=C(Nc2ccc(Cl)cc2)C(=O)c2cccnc2C1=O [compound 6, 6-[(N-4-chlorophenyl)amino]-7-methylmercapto-5,8-quinolindion]",,6.3,< 0.8,12.5,25,12.5,,,,,,,
"CCCSC1=C(Cl)C(=O)c2ncccc2C1=O [compound 14, 6-n-propylmercapto-7-chloro-5,8-quinolindion]",,50,50,3.2,12.5,12.5,,,,,,,
"N#CSC1=C(Nc2ccc(Br)cc2)C(=O)c2cccnc2C1=O [compound 9, 6-[(N-4-bromophenyl)amino]-7-thiocyano-5,8-quinolindion]",,6.3,< 0.8,3.2,< 0.8,< 0.8,,,,,,,
"O=C1C(Nc2cc(Cl)cc(Cl)c2)=C(Cl)C(=O)c2ncccc21 [Compound No. 2, 6-[(N-3,5-dichlorophenyl)amino]-7-chloro-5,8-quinolindion]",,,,,,,12.5,25.0,12.5,6.3,12.5,0.07,
"CCCCSC1=C(Cl)C(=O)c2ncccc2C1=O [compound 15, 6-n-butylmercapto-7-chloro-5,8-quinolindion]",,12.5,100,12.5,25,25,,,,,,,
"CCCCCCCSC1=C(Cl)C(=O)c2ncccc2C1=O [compound 18, 6-n-heptylmercapto-7-chloro-5,8-quinolindion]",,50,12.5,12.5,6.3,6.3,,,,,,,
"CCCCCCCCCSC1=C(Cl)C(=O)c2ncccc2C1=O [compound 20, 6-n-nonylmercapto-7-chloro-5,8-quinolindion]",,50,6.3,25,25,50,,,,,,,
"CC(=O)c1ccc(NC2=C(Cl)C(=O)c3ncccc3C2=O)cc1 [Compound No. 4, 6-[(N-4-acetophenyl)amino]-7-chloro-5,8-quinolindion]",,,,,,,3.2,3.2,12.5,6.3,1.6,,
"CC(=O)N1CCN(c2ccc(OCC3COC(Cn4ccnc4)(c4ccc(Cl)cc4Cl)O3)cc2)CC1 (stereo not drawn) [Ketoconazole, ketoconazole, reference compound]",,12.5,12.5,12.5,12.5,12.5,,,,,,,
"CCCCCSC1=C(Cl)C(=O)c2ncccc2C1=O [compound 16, 6-n-pentylmercapto-7-chloro-5,8-quinolindion]",,12.5,50,25,6.3,3.2,,,,,,,
"N#CSC1=C(Nc2cc(F)cc(F)c2)C(=O)c2cccnc2C1=O [compound 12, 6-[(N-3,5-difulorophenyl)amino]-7-thiocyano-5,8-quinolindion]",,,,,,,12.5,3.2,<0.8,1.6,12.5,,
"CSC1=C(Nc2ccc(I)cc2)C(=O)c2cccnc2C1=O [compound 7, 6-[(N-4-iodophenyl)amino]-7-methylmercapto-5,8-quinolindion]",,3.2,3.2,3.2,25,6.3,,,,,,,
"CCSC1=C(Cl)C(=O)c2ncccc2C1=O [compound 13, 6-n-ethylmercapto-7-chloro-5,8-quinolindion]",,,,,,,50,100,6.3,3.2,12.5,,
"O=C1C(Nc2ccc(Br)cc2)=C(Br)C(=O)c2ncccc21 [Compound No. 3, 6-[(N-4-bromophenyl)amino]-7-bromo-5,8-quinolindion]",0.06,6.3,12.5,6.3,25,6.3,,,,,,,
"CC(=O)c1ccc(NC2=C(SC#N)C(=O)c3ncccc3C2=O)cc1 [compound 11, 6-[(N-4-acetophenyl)amino]-7-thiocyano-5,8-quinolindion]",,,,,,,25,3.2,<0.8,3.2,6.3,,
"OC(Cn1cncn1)(Cn1cncn1)c1ccc(F)cc1F [Fluconazole, fluconazole, reference compound]",,25,100,25,12.5,25,,,,,,,6
"N#CSC1=C(Nc2ccc(I)cc2)C(=O)c2cccnc2C1=O [compound 8, 6-[(N-4-iodophenyl)amino]-7-thiocyano-5,8-quinolindion]",,12.5,12.5,12.5,100,12.5,,,,,,,
"CCCCCCCCSC1=C(Cl)C(=O)c2ncccc2C1=O [compound 19, 6-n-octylmercapto-7-chloro-5,8-quinolindion]",,25,12.5,12.5,3.2,12.5,,,,,,,
"N#CSC1=C(Nc2ccc(Cl)cc2)C(=O)c2cccnc2C1=O [compound 10, 6-[(N-4-chlorophenyl)amino]-7-thiocyano-5,8-quinolindion]",,12.5,12.5,6.3,100,12.5,,,,,,,
